Source: patent publication US10251865B2, “Method of activating regulatory T cells with alpha-2B adrenergic receptor agonists” (Allergan, Inc., priority 2010, dated 2019)

Columns and labels:
Assay type in all cases: in vivo
[1] = test system: PLP-induced model of relapsing remitting EAE; experiment: Proteolipid-induced relapsing-remitting EAE in mice: clinical score and pain
Description: (§1) The mouse model of experimental autoimmune encephalomyelitis (EAE) has been used extensively to understand the mechanisms underlying the immunopathogenesis of MS. […] Components of the immune system including T cells, macrophage, and antibodies are important contributors to myelin destruction in EAE mice. Further, inflammation also gives rise to multifocal regions demyelination culminating in clinical signs of neurologic dysfunction that include loss of tail tone, abnormal gait and partial-to-complete hind-limb paralysis. PLP-induced EAE model offers the ability to simultaneously investigate the pathogenic mechanisms of CNS inflammation and demyelination and MS-associated pain, a multi-targeted concept that we have optimized here at Allergan. Using sterile technique proteolipid protein myelin peptide (PLP) (139-159: […]) is mixed 1:1 with incomplete Freund's adjuvant (IFA) (Final concentration of 2 mg/ml PLP). 8-10 week old Female SJL mice (Taconic) are injected subcutaneously with 100 μl PLP/IFA (200 μg PLP/injection) on both the right and left hind-flank (day 0) using a 26G needle. Mice immunized using this protocol experience a relapsing-remitting clinical course with episodes of motor impairment interspersed with periods of remission/clinical improvement. Furthermore, these mice display a robust pain phenotype that is most pronounced during periods of clinical remission.
Using this protocol, the onset of PLP-induced EAE in SJL mice occurs at an incidence of (˜90-100%) and is generally apparent by ˜12 days post-immunization, reaching peak disease by 14-21 days. PLP-EAE mice show physical symptoms of neurologic impairment, progressing from partial loss of tail tonicity to partial-to-complete hind-limb paralysis. Up to 75% of the mice will experience a relapsing-remitting clinical course with periods of remission flanked by episodes of motor impairment (hind-limb weakness and paralysis). Histologically, mice display extensive inflammation within white matter tracts (areas containing myelinated axons) of the brain and spinal cord, progressive infiltration and accumulation of inflammatory cells, demyelination and axonal loss. Mice with severe EAE show extensive cellular infiltrates, widespread foci of demyelination. PLP-immunized mice typically display the most severe clinical disease during the first episode of neurologic impairment (days 14-21). […]
(§2) Mice were routinely visually scored for behavioral abnormalities on a scale from 0-5; 0-no abnormality, 1-partial loss of tail tonicity (partial limp tail), 2-loss of tail tonicity and hind-limb weakness 3-unsteady gait and partial hind-limb paralysis, 4-complete hind-limb paralysis and 5-moribund or dead. […] Allodynia was measured by the Von Frey hairs method as described earlier. […]

[2] = test system: regulatory T cells and immune cells in the CNS; experiment: Flow cytometry of immune cells and Treg cells in PLP-induced EAE mice
Description: as §1, with “Mice immunized using this protocol experience a relapsing-remitting clinical course with episodes of motor impairment interspersed with periods of remission/clinical improvement. Furthermore, these mice display a robust pain phenotype that is most pronounced during periods of clinical remission.” left out
as §2
To determine surface expression of CD4 (Helper T cells), CD8 (killer T cells), CD25 (activated helper T cells and regulatory T cells), CD45 (macrophage and microglial cells) and F4/80 (macrophage and microglial cells) 5×10^5 cells/100 μL FACS buffer (PBS, 0.02% sodium azide [Sigma-Aldrich] and 2% bovine serum albumin) were incubated with appropriate antibodies from BD biosciences, Mountain View, Calif. […] Expression was analyzed (FACSCalibur with CellQuest software; BD Biosciences, Mountain View, Calif.).

[3] = test system: goblet cells and T cells in the conjunctiva; experiment: Dry eye desiccating stress in mice, therapeutic mode, conjunctiva histology; details: 3 mg/kg/day via osmotic minipump, mice previously exposed to blower, comparable to Cyclosporine A, FIG. 12
Description: C57BL/6 (C57BL/6NTac) and B6.Cg/NTac-Foxn1nuNE9 were purchased from Taconic, Inc. (Germantown, N.Y.). Mice were used at 6-10 weeks of age. Animal studies approval was obtained from the Allergan Animal Care and Use Committee. All studies adhered to the Association for Research in Vision and Ophthalmology statement for the Use of Animals in Ophthalmic and Vision Research. As described in the literature dry eye was induced by treating mice with subcutaneous injections of scopolamine hydrobromide (0.5 mg/0.2 ml; Sigma-Aldrich, St. Louis, Mo.) three times a day alternating between the left and right flanks (Neiderkorn et al, 2006). Mice were placed in a cage containing perforated plastic screens on each side of the cage to permit airflow from fans (one fan on each side of the cage) for 16 hr/day in a hood (AirClean Systems, Raleigh, N.C.). Room humidity was kept below 40%. Desiccating stress (DS) was induced for 10 consecutive days. Spleens and cervical lymph nodes (CLN) were collected from mice subjected to DS and NS, and one donor-equivalent of either spleen or CLN CD4+ cells was transferred i.p. to syngeneic nude mice. One splenic equivalent of T cells was equal to 5×10^7 cells. Three days later samples were collected for analysis. For tear collection, 1.5 μL of PBS was placed on each eye, and then 1 μL of tear was collected from both eyes and placed in 8 μL of cytokine assay buffer (Beadlyte; Millipore, Billerica, Mass.). Buffer and tear fluid were collected by capillary action using a 1 μL volume glass capillary tube (Drummond Scientific, Broomhall, Pa.) that was placed in the tear meniscus of the lateral canthus. Samples were frozen at −80° C. until the time of assay. Histological analysis was done by staining […] samples with antibody to CD4 and H&E staining to quantify goblet cells and T cells in the conjunctiva. To test the compounds in a therapeutic mode, the animals were exposed to the desiccating stress for two weeks and then allowed to rest for 7 days in regular housing cages. The animals were then re-exposed to desiccating stress for an additional 7 days to mimic relapsing form of chronic dry eye disease. Drug treatment with Compound B was started 2 days before re-exposure to desiccating stress. In both the studies Compound B was dosed at 3 mg/kg/day. Adoptive transfer, tear cytokine analysis and histological analysis were performed as described above.

[4] = mice immunized with proteolipid protein, 3 mg/kg/day by osmotic minipump, FIG. 3

Compound	clinical score compared to vehicle-treated mice from days 13-24 ([1]; TID oral dosing (3 mg/kg/day) from day 7-13, FIG. 6)	frequency of regulatory T cells (CD4+CD25hiFoxP3+) in the spinal cord ([2]; flow cytometry on day 37, FIG. 7)	T cell infiltration into the conjunctiva [3]	goblet cell loss [3]	pain [1, 4]	symptoms of MS (clinical course of disease) ([1]; treatment during the development of clinical disease, FIG. 4)	clinical score during relapses on days 14 (p<0.01) and 24 ([1]; treatment from days 7-10)	presence of immune cells in the CNS ([2]; flow cytometry at the end of the study, FIG. 5)	Treg number [2, 4]
Clc1cccc(CNC2=NCCN2)c1Cl [Compound C]	significantly reduced	increased	significantly reduced	significantly reduced	–	–	–	–	–
CCC1=CC(Cc2c[nH]cn2)CCC1 (centres unmarked) [Compound B]	–	–	significantly prevented	significantly prevented	reduced	significant effect on attenuating symptoms	reduced	significantly reduced	selectively boosted
